Consider 6 compounds from patent publication US20100029752A1, “NOVEL COMPOUNDS, PHARMACEUTICAL COMPOSITIONS CONTAINING SAME, AND METHODS OF USE FOR SAME” (priority 2005, published 2010).

Converted amounts (≈) assume the structure as drawn. Bounds are passed on as bounds.

Common to all, as to assay type: cell-based
Assay [1] has as its system fatty acid synthesis pathway activity in MCF-7 human breast cancer cells. Briefly: [14C]acetate incorporation into total lipids. Conditions: MCF-7 cells, [14C]acetate into lipids; for IC50: Homo sapiens, MCF7. The method, then:
This assay measures the incorporation of [^14C]acetate into total lipids and is a measure of fatty acid synthesis pathway activity in vitro. It is utilized to measure inhibition of fatty acid synthesis in vitro.
MCF-7 human breast cancer cells cultured as above, are plated at 5×10^4 cells per well in 24-well plates. Following overnight incubation, the compounds to be tested, solubilized in DMSO, are added at 5, 10, and 20 μg/ml in triplicate, with lower concentrations tested if necessary. DMSO is added to triplicate wells for a vehicle control. C75 is run at 5 and 10 μg/ml in triplicate as positive controls. After 4 hours of incubation, 0.25 μCi of [^14C]acetate (10 μl volume) is added to each well.
After 2 hours of additional incubation, medium is aspirated from the wells and 800 μl of chloroform:methanol (2:1) and 700 μl of 4 mM MgCl2 is added to each well. Contents of each well are transferred to 1.5 Eppendorf tubes, and spun at full-speed for 2 minutes in a high-speed Eppendorf Microcentrifuge 5415D. After removal of the aqueous (upper) layer, an additional 700 μl of chloroform:methanol (2:1) and 500 μl of 4 mM MgCl2 are added to each tube and then centrifuged for 1 minutes as above. The aqueous layer is removed with a Pasteur pipette and discarded. An additional 400 μl of chloroform:methanol (2:1) and 200 μl of 4 mM MgCl2 are added to each tube, then centrifuged and aqueous layer is discarded. The lower (organic) phase is transferred into a scintillation vial and dried at 40° C. under N2 gas. Once dried, 3 ml of scintillant (APB #NBC5104) is added and vials are counted for ^14C. The Beckman Scintillation counter calculates the average cpm values for triplicates.
The IC50 for the compounds is defined as the concentration of drug leading to a 50% reduction in [^14C]acetate incorporation into lipids compared to controls. This is determined by plotting the average cpm for each inhibitor concentration tested, performing linear regression and computing the best-fit line, r^2 values, and 95% confidence intervals. The average cpm values are computed by the Beckman scintillation counter (Model LS6500) for each compound concentration. Computation of linear regression, best-fit line, r^2, and 95% confidence intervals are calculated using Prism Version 3.0 (Graph Pad Software).

A further assay relates to OV. Description: XTT cytotoxicity assay (OV). Conditions: (OV) cells. The method, then: (§1) The XTT assay is a non-radioactive alternative for the [^51Cr] release cytotoxicity assay. XTT is a tetrazolium salt that is reduced to a formazan dye only by metabolically active, viable cells. The reduction of XTT is measured spectrophotometrically as OD490-OD650. After 72 hours of incubation, cells are incubated for 4 hours with the XTT reagent as per manufacturer's instructions (Cell Proliferation Kit 11 (XTT) Roche). Plates are read at OD490 and OD650 on a Molecular Devices SpectraMax Plus Spectrophotometer. Three wells containing the XTT reagent without cells serve as the plate blank. XTT data are reported as OD490-OD650. Averages and standard error of the mean are computed using SOFTmax Pro software (Molecular Dynamics). The IC50 for the compounds is defined as the concentration of drug leading to a 50% reduction in OD490-OD650 compared to controls. The OD490-OD650 are computed by the SOFTmax PRO software (Molecular Devices) for each compound concentration. IC50 is calculated by linear regression, plotting the FAS activity as percent of control versus drug concentrations. Linear regression, best-fit line, r^2, and 95% confidence intervals are determined using Prism Version 3.0 (Graph Pad Software).
A general note: Tetrazolium dyes change colour on reduction, which living cells bring about.

Assay [2] has as its system MCF-7 human breast cancer cells. Description: XTT cytotoxicity assay (M / MCF7). The note with it: MCF-7 cells, 72 hours. On the procedure:
as §1, with “as OD490-OD650. To measure the cytotoxicity of specific compounds against cancer cells, 9×10^3 MCF-7 human breast cancer cells, obtained from the American Type Culture Collection are plated per well in 96 well plates in DMEM medium with 10% fetal bovine serum, insulin, penicillin, and streptomycin. Following overnight culture at 37° C. and 5% CO2, the compounds to be tested, dissolved in DMSO, are added to the wells in 1 μl volume at the following concentrations: 80, 40, 20, 10, 5, 2.5, 1.25, and 0.625 μg/ml in triplicate. Additional concentrations are tested if required. 1 μl of DMSO is added to triplicate wells are the vehicle control. C75 is run at 40, 20, […], and 5 μg/ml in triplicate as positive controls. After 72” for “as OD490-OD650. After 72”

Broadly, the IC50 is the concentration at which inhibition is half-maximal. Low readings indicate greater potency in that assay, high ones weaker potency in that assay. As for `CCCCCCCCNC(=O)c1cc(O)c(C(=O)OC)s1`, the IC50 in assay [1] is 20.5 µg/mL (≈ 65.4 µM); with OV it was 37.1 µg/mL (≈ 118 µM); in assay [2], 47.5 µg/mL (≈ 152 µM).

Take `CCCCCCCCNNC(=O)c1cc(O)c(C(=O)OC)s1`: the IC50 in assay [1] was found to be 41.2 µg/mL (≈ 125 µM); in the assay with OV, 77.1 µg/mL (≈ 235 µM); in assay [2], 73.3 µg/mL (≈ 223 µM).

Consider `C=CCNC(=O)c1cc(O)c(C(=O)OC)s1`, for which, in assay [1], the “14C (IC50)” value is reported as “Neg”. Moreover, the IC50 (in the assay on OV; in assay [2]) was over 80 µg/mL throughout.

On to `COC(=O)c1sc(C(=O)O)cc1O`, for which the 50% inhibitory concentration (IC50) in assay [1] was 55.2 µg/mL (≈ 273 µM); with OV it was over 80 µg/mL; in assay [2] it was over 80 µg/mL.

As for `CCCCCCCCNC(=O)c1cc(O)cs1`, the IC50 in assay [1] amounted to 17.6 ± 1.9 µg/mL (≈ 68.9 µM); in the assay with OV, 9.5 µg/mL (≈ 37.2 µM); in assay [2], 9.9 µg/mL (≈ 38.8 µM).

`COC(=O)c1sc(C(=O)NNc2ccc(Cl)cc2)cc1O`: the results for the IC50 (in assay [1]; with OV; in assay [2]) were 25.2 µg/mL (≈ 77.1 µM), 50 ± 5 µg/mL (≈ 153 µM) and over 80 µg/mL, respectively.
